# Assays:
# Assay in all cases: biochemical
# Design in all cases: Kinase selectivity panel of 81 human kinases, ADP-Glo or HTRF, per cent inhibition at 1 uM
# PLK2 = PLK2 (Homo sapiens, UniProt Q9NYY3)
# Summary of the method: (§1)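 Kinase-panel selectivity profiling of 81 kinases with compound at 1000 nM.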
# MET = MET (Homo sapiens, UniProt P08581)
# Summary of the method: as §1
# PDGFRα = molecular target: T1, PDGFRα (Homo sapiens, UniProt P16234)
# T1 construct: gene PDGFRA
# Summary of the method: as §1
# MRCKβ = molecular target: T2, MRCKβ (Homo sapiens, UniProt Q9Y5S2)
# T2 construct: gene CDC42BPB
# Summary of the method: as §1
# DYRK1B = DYRK1B (Homo sapiens, UniProt Q9Y463)
# Summary of the method: as §1
# TRKB = molecular target: T3, TRKB (Homo sapiens, UniProt Q16620)
# T3 construct: gene NTRK2
# Summary of the method: as §1
# CK2α1/β = molecular target: T4, CK2α1/β (Homo sapiens, UniProt P68400)
# T4 construct: gene CSNK2A1
# Summary of the method: as §1
# CaMK1α = molecular target: T5, CaMK1α (Homo sapiens, UniProt Q14012)
# T5 construct: gene CAMK1
# Summary of the method: as §1
# ABL1 = ABL1 (Homo sapiens, UniProt P00519)
# Summary of the method: as §1
# GAK = GAK (Homo sapiens, UniProt O14976)
# Summary of the method: as §1
# ULK2 = ULK2 (Homo sapiens, UniProt Q8IYT8)
# Summary of the method: as §1
# ALK4 = molecular target: T6, ALK4 (Homo sapiens, UniProt P36896)
# T6 construct: gene ACVR1B
# Summary of the method: as §1
# DYRK1B, sequence (Q9Y463 whole entry): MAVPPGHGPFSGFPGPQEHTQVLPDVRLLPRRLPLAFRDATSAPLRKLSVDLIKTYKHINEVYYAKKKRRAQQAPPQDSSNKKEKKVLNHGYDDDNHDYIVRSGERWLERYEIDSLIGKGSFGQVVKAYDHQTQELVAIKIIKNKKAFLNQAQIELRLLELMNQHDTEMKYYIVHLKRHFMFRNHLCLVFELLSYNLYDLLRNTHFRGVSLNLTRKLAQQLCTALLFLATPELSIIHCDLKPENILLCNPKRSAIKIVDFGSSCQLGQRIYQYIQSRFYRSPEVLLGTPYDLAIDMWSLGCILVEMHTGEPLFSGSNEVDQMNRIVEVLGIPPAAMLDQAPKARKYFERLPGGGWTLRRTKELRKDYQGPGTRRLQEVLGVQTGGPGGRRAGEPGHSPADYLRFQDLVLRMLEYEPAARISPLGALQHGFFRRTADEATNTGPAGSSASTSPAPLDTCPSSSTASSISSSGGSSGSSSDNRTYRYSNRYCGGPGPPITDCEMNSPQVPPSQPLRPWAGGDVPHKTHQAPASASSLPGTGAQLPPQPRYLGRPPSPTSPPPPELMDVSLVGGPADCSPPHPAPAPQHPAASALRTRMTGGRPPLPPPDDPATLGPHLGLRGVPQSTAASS
# ABL1, sequence (P00519 whole entry): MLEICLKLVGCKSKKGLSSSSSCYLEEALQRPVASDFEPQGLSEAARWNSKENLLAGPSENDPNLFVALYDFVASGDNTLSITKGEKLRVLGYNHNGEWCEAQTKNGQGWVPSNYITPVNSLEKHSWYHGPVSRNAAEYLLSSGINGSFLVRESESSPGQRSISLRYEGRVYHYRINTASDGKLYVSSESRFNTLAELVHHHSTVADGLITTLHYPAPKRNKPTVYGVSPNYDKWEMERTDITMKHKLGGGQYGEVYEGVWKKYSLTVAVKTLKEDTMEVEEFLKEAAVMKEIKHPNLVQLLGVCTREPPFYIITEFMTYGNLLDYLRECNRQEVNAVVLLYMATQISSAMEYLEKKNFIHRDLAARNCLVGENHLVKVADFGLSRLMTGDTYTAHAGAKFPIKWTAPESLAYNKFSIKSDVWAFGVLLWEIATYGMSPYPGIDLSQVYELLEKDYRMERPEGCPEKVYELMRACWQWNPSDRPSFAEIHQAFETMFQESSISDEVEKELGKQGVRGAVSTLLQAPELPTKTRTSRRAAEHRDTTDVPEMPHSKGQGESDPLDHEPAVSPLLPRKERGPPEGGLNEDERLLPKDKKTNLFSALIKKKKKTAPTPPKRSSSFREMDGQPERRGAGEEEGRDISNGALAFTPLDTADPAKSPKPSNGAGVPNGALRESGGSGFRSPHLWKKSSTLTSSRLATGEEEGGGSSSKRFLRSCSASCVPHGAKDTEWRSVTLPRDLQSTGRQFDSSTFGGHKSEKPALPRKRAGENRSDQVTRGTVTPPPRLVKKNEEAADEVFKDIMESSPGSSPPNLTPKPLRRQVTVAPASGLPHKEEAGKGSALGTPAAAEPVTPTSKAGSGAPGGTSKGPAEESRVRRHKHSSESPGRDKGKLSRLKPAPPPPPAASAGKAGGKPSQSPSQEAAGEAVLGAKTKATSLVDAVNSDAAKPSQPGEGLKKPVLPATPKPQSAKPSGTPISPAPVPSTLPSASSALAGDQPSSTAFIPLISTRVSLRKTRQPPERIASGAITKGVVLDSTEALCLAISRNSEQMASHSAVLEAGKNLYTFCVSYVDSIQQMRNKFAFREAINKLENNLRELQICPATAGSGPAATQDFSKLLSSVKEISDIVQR
# T1 sequence (P16234 whole entry): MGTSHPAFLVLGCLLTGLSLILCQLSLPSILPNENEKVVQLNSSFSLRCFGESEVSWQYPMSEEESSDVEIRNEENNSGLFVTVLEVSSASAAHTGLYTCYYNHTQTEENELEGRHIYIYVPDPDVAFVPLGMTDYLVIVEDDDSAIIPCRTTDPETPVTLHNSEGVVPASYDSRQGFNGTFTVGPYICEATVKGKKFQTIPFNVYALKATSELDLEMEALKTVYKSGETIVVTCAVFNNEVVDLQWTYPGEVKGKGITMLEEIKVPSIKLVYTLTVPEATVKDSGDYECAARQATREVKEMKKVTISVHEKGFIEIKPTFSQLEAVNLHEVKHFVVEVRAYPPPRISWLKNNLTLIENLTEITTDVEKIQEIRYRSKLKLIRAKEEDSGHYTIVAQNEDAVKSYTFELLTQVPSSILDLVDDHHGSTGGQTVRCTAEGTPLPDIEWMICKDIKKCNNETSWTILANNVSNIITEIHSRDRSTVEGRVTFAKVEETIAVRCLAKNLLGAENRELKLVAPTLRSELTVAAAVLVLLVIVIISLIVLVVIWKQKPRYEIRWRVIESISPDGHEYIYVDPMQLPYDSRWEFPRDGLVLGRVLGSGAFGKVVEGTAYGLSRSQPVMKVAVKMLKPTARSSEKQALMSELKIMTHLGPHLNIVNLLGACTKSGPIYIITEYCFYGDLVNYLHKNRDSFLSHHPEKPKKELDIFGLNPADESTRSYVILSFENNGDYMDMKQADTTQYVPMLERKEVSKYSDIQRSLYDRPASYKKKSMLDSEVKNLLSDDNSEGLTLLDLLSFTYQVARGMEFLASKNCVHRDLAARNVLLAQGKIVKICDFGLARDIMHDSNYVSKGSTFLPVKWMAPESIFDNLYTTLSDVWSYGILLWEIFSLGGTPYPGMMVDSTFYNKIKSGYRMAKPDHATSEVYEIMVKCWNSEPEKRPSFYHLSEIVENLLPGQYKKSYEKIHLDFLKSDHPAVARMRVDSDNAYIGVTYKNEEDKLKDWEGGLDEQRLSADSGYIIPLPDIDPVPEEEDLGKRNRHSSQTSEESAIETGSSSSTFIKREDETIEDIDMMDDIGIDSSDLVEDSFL
# T2 sequence (Q9Y5S2 whole entry): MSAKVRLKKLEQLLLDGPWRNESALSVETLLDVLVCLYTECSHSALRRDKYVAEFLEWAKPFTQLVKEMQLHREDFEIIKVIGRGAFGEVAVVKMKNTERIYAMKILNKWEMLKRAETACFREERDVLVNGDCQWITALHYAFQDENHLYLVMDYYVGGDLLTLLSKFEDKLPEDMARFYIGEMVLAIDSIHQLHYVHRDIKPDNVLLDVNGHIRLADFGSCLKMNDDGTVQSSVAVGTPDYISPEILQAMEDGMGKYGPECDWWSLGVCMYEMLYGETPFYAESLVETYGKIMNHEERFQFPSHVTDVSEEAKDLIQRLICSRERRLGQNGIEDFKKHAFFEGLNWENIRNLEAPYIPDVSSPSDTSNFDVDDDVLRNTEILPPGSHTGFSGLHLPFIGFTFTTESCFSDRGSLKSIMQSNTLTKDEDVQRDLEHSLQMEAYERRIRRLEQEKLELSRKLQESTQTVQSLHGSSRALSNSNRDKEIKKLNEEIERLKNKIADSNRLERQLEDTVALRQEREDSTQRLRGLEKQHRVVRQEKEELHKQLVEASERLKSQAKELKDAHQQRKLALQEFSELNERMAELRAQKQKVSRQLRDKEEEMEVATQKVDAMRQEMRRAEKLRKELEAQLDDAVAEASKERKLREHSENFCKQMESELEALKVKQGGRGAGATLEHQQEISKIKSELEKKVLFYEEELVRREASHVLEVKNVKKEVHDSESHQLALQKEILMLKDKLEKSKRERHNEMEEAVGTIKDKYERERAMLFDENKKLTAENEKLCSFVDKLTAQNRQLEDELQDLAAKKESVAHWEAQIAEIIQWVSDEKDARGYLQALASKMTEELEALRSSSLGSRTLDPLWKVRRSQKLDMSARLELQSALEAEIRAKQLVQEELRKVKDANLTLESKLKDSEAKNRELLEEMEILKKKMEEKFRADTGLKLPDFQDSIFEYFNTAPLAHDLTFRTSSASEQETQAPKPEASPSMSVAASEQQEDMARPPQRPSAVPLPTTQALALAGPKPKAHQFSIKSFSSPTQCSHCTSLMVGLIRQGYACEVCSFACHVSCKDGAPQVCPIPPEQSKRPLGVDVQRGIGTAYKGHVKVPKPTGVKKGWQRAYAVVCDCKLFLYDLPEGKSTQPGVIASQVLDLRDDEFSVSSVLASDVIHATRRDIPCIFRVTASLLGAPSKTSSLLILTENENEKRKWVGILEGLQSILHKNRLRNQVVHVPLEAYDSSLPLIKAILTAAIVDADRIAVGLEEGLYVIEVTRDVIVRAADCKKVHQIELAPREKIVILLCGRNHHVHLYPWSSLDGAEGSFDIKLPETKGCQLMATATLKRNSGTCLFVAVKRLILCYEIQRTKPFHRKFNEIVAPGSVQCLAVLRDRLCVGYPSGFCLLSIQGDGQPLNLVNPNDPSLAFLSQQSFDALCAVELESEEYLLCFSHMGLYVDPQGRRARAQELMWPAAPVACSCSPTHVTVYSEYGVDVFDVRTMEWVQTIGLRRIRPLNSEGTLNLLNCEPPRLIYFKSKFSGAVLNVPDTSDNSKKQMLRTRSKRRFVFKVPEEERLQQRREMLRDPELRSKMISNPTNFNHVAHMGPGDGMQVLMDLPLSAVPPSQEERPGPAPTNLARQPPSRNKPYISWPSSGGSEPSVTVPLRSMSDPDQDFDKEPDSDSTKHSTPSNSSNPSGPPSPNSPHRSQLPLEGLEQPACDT
# T6 sequence (P36896 whole entry): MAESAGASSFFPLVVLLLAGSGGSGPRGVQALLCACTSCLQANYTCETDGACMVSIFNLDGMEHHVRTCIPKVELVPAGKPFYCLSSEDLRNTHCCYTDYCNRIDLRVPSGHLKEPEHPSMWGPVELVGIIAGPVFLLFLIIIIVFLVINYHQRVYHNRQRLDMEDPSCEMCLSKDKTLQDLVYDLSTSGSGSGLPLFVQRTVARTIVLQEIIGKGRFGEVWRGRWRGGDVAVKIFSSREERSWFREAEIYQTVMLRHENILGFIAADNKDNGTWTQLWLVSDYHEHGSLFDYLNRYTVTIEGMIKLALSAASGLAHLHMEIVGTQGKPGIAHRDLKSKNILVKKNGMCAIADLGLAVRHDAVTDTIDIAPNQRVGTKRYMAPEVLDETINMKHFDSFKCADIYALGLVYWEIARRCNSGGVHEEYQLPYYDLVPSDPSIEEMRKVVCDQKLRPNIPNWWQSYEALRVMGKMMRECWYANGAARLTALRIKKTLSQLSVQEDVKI
compound,measurement,setting,value
Nc1cn2cc(-c3cnc4c(c3)N(C(=O)OC3CCCCC3)CCO4)ccc2n1 [Zharp1-163],inhibition at 1 µM,PLK2; replicate Data1,-2.91%
same,inhibition at 1 µM,PLK2; replicate Data2,-19.7%
same,inhibition at 1 µM,MET; replicate Data1,18.3%
same,inhibition at 1 µM,MET; replicate Data2,3.81%
same,inhibition at 1 µM,PDGFRα; replicate Data1,-2.74%
same,inhibition at 1 µM,PDGFRα; replicate Data2,4.62%
same,inhibition at 1 µM,MRCKβ; replicate Data1,-0.71%
same,inhibition at 1 µM,MRCKβ; replicate Data2,4.66%
same,inhibition at 1 µM,DYRK1B; replicate Data1,16.6%
same,inhibition at 1 µM,DYRK1B; replicate Data2,9.23%
same,inhibition at 1 µM,TRKB; replicate Data1,61.4%
same,inhibition at 1 µM,TRKB; replicate Data2,58.1%
same,inhibition at 1 µM,CK2α1/β; replicate Data1,-12.2%
same,inhibition at 1 µM,CK2α1/β; replicate Data2,5.04%
same,inhibition at 1 µM,CaMK1α; replicate Data1,-18.7%
same,inhibition at 1 µM,CaMK1α; replicate Data2,-6.35%
same,inhibition at 1 µM,ABL1; replicate Data1,6.71%
same,inhibition at 1 µM,ABL1; replicate Data2,9.11%
same,inhibition at 1 µM,GAK; replicate Data1,18.2%
same,inhibition at 1 µM,GAK; replicate Data2,19.7%
same,inhibition at 1 µM,ULK2; replicate Data1,-5.94%
same,inhibition at 1 µM,ULK2; replicate Data2,-8.78%
same,inhibition at 1 µM,ALK4; replicate Data1,-1.47%
same,inhibition at 1 µM,ALK4; replicate Data2,-2.74%
